Laboratory results taken from ChEMBL document CHEMBL1201862, “PubChem BioAssay data set” (2004).
Values joined by “and” are separate entries in the source; they are usually repeats but may differ in a detail not shown here. Equal entries are not always repeated.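 Briefly, cells in 96-well plates were exposed to five compound concentrations for 48 h, and endpoints were estimated by linear interpolation. GI50 = concentration required for 50% inhibition of growth.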 Active and inactive are the calls of the source. No stated cut-off is given here; in the data, active = GI50 up to about 1.1 µM and inactive = higher.

How the values were obtained:
Experiment in all cases: NCI tumour cell line growth inhibition, 48 h
[1] = tested on: NCI-H522
[2] = tested on: SF-268
[3] = tested on: A498
[4] = tested on: CAKI-1
[5] = tested on: UO-31
[6] = tested on: SK-MEL-28
[7] = tested on: K562
[8] = tested on: RXF 393
[9] = tested on: HT-29
[10] = tested on: CCRF-CEM
[11] = tested on: NCI/ADR-RES
[12] = tested on: RPMI-8226
[13] = tested on: HOP-92
[14] = tested on: PC-3
[15] = tested on: MOLT-4
[16] = tested on: TK-10
[17] = tested on: SF-539
[18] = tested on: SN12C
[19] = tested on: T47D
[20] = tested on: SK-OV-3

Measured: GI50

NC(Cc1ccc(O)cn1)C(=O)NC(C(=O)O)c1ccccc1 (stereo unspecified)
inactive: [1] > 100 µM | [2] > 100 µM | [3] > 100 µM | [4] > 100 µM | [5] > 100 µM | [6] > 100 µM | [7] > 100 µM | [8] > 100 µM | [9] > 100 µM | [10] > 100 µM | [11] > 100 µM | [12] > 100 µM | [13] > 100 µM | [14] > 100 µM | [15] > 100 µM | [16] > 100 µM | [17] > 100 µM | [18] > 100 µM

CC(C)(C)OC(=O)NC(CCC(=O)OCc1ccccc1)C(=O)NCCCO (stereo unspecified)
inactive: [1] > 100 µM | [2] > 100 µM | [3] > 100 µM | [4] > 100 µM | [5] > 100 µM | [6] > 100 µM | [7] > 100 µM | [8] > 100 µM | [9] > 100 µM | [10] > 100 µM | [11] > 100 µM | [12] > 100 µM | [19] > 100 µM | [13] > 100 µM | [15] > 100 µM | [20] > 100 µM | [16] > 100 µM | [17] > 100 µM | [18] > 100 µM

CNC(=O)N1CN(c2ccccc2)C2(CCN(CCCC(=O)c3ccc(F)cc3)CC2)C1=O
inactive: [1] 24.9 µM | [2] 39.1 µM | [4] 24.8 µM | [5] 7.08 µM | [6] 17.2 µM | [7] 19.5 µM | [8] 20.5 µM | [9] 5.19 µM | [10] 13.9 µM | [11] 17.6 µM | [12] 14.1 µM | [19] 4.98 µM | [14] 31.2 µM | [15] 4.57 µM | [20] 31.8 µM | [16] 18 µM | [17] 13.9 µM | [18] 21.4 µM

O=C(CC(=O)Nc1ccccc1)N/N=C/c1cc(/N=N/c2ccc(Br)cc2)ccc1O
inactive: [2] 4.5 µM | [4] 3.61 µM | [5] 2.42 µM | [6] 4.41 µM | [7] 2.96 µM | [10] 1.54 µM | [11] 2.88 µM | [12] 3.68 µM | [19] 4.38 µM | [13] > 10 µM | [15] 1.35 µM | [20] 8.87 µM | [16] 4.2 µM | [17] 4.05 µM | [18] 8.22 µM

Clc1cc2c(cc1Cl)CC(NCCN1CCCC1)CC2 (stereo unspecified)
inactive: [1] 17.1 µM | [2] 15.3 µM | [3] 13.7 µM | [4] 15.7 µM | [5] 11.1 µM | [6] 10.2 µM | [7] 10.8 µM | [9] 4.35 µM | [10] 26.4 µM | [11] 13.7 µM | [12] 12.6 µM | [19] 10.4 µM | [14] 15.1 µM | [15] 20.5 µM | [20] 17.7 µM | [16] 14.4 µM | [17] 13.6 µM | [18] 15.8 µM

COC(=O)C1OC(O[C@H]2CC[C@]3(C)[C@H]4CC=C5[C@@H]6CC(C)(C)CC[C@]6(C(=O)OC6OCC(O)C(O)C6OC6OC(C)C(OC7OCC(O)C(O)C7O)C(O)C6O)CC[C@@]5(C)[C@]4(C)CC[C@H]3C2(C)C)C(O)C(O)C1O (stereo partly specified)
inactive: [1] 16.1 µM and 16.4 µM | [2] 17.3 µM and 19.6 µM | [4] 12.9 µM and 15.5 µM | [5] 13.2 µM and 18.9 µM | [6] 14.4 µM and 16.6 µM | [7] 25.8 µM and 26 µM | [8] 21.1 µM and 19.5 µM | [9] 15.8 µM and 16 µM | [10] 22.6 µM and 22.4 µM | [12] 23.9 µM and 18.8 µM | [19] 28.2 µM and 18.2 µM | [13] 16.4 µM and 19.9 µM | [14] 14.4 µM and 15.8 µM | [15] 19.3 µM and 18.1 µM | [20] 21.2 µM and 21.3 µM | [18] 13.4 µM and 16.4 µM

COC1CCN(N(C)C)O1 (stereo unspecified)
inactive: [1] > 100 µM | [2] > 100 µM | [3] > 100 µM | [4] > 100 µM | [5] > 100 µM | [6] > 100 µM | [7] > 100 µM | [8] > 100 µM | [9] > 100 µM | [10] > 100 µM | [11] > 100 µM | [12] > 100 µM | [19] > 100 µM | [14] > 100 µM | [15] > 100 µM | [16] > 100 µM | [18] > 100 µM

COc1ccc(/C=C2\CCC(C)(CN(C)C)C2=O)cc1Br (stereo unspecified)
inactive: [1] 17 µM | [2] 16.5 µM | [3] 22.4 µM | [4] 32.7 µM | [5] 18.1 µM | [6] 22.9 µM | [7] 27.9 µM | [8] 17.9 µM | [9] 21.9 µM | [10] 37.5 µM | [11] 22.3 µM | [12] 19.1 µM | [13] 29.9 µM | [14] 20.4 µM | [15] 20.3 µM | [20] 30.1 µM | [16] 22 µM | [17] 21.5 µM | [18] 17.5 µM

CCN1CCC(C)OP1(=O)Cc1ccccc1 (stereo unspecified)
inactive: [2] > 100 µM | [4] > 100 µM | [5] > 100 µM | [7] > 100 µM | [9] > 100 µM | [11] > 100 µM | [12] > 100 µM | [19] > 100 µM | [14] > 100 µM | [20] > 100 µM | [16] > 100 µM | [17] > 100 µM

Cc1nc(Nc2ccc([N+](=O)[O-])cc2)sc1C(=O)/C=C/c1ccc(N(C)C)cc1
inactive: [1] 19.4 µM | [2] > 100 µM | [3] 49.2 µM | [4] > 100 µM | [5] 36.8 µM | [6] > 100 µM | [7] 37.8 µM | [8] 30.4 µM | [9] > 100 µM | [10] 60.1 µM | [12] 54.1 µM | [13] > 100 µM | [15] 35.9 µM | [20] > 100 µM | [16] 77.4 µM | [17] 88.9 µM | [18] > 100 µM

CC(C)C1COC(c2cccc(C3=N[C@@H](C(C)C)CO3)n2)=N1 (stereo partly specified)
inactive: [1] > 100 µM | [2] > 100 µM | [3] > 100 µM | [4] > 100 µM | [5] 98.6 µM | [6] > 100 µM | [7] > 100 µM | [8] > 100 µM | [9] > 100 µM | [10] > 100 µM | [12] > 100 µM | [13] > 100 µM | [15] > 100 µM | [20] > 100 µM | [16] > 100 µM | [17] > 100 µM | [18] > 100 µM
